Assay results published in paper PMC10221159, “Investigation of N-Acetyltransferase 2-Mediated Drug Interactions of Amifampridine: In Vitro and In Vivo Evidence of Drug Interactions with Acetaminophen” (Pharmaceutics, 2023).

Assays:
NAT2 [1] = target: T1, NAT2 (Homo sapiens, UniProt P11245); assay: Inhibition of amifampridine acetylation to 3-N-acetylamifampridine by NAT2 inhibitors, human liver S9 fraction; assay type: biochemical; conditions: amifampridine 50 μM, 15 min
T1 construct: in vitro using S9 fractions obtained from human, rat, and mouse livers; from tissue; host or cells: human liver S9 fraction
T1 sequence (P11245 1-290): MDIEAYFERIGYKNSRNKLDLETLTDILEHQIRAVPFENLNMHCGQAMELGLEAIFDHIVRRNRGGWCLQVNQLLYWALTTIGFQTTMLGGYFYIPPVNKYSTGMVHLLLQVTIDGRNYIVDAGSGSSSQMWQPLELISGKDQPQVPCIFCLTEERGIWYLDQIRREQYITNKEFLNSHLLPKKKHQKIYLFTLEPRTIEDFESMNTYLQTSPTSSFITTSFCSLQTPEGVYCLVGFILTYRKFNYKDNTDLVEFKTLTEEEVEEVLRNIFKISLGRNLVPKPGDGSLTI
Procedure: Then, the NAT2 inhibitors (final concentrations of 0, 1, 5, 10, 50, 100, 500, 1000, and 5000 μM) and amifampridine (final concentration of 50 μM) were added to the reaction mixture and incubated for 15 min at 37 °C. An amount of 50 μL of the mixture was then transferred into the tube and mixed with 100 μL of IS (5 ng/mL ondansetron in acetonitrile). The mixture was vortexed and centrifuged at 14,000 rpm for 15 min at 4 °C. The supernatant was transferred into vials for HPLC-MS/MS analysis and the concentration of 3-N-acetylamifampridine was determined.

NAT2 [2] = conditions: previous report; cited from earlier work

SMILES | IC50 (NAT2 [1]) | IC50 (NAT2 [2])
COc1cc(C(C)=O)ccc1O [apocynin] | 844 ± 160 µM | 690 µM
CN/C(=N/CCSCc1nc[nH]c1C)NC#N [cimetidine] | 2450 ± 258 µM | 2060 µM
